In patent publication US10335411B2, “Administration of ubiquitin-activating enzyme inhibitor and radiation” (Millennium Pharmaceuticals, Inc., priority 2014, dated 2019):

Columns and labels:
[1] = tested on: LU-01-0030 xenograft; assay: LU-01-0030 xenograft model, first study, Compound 1 and radiation; format: in vivo, mice
Description: The LU-01-0030 xenograft model is a human primary non-small cell lung cancer model. In the first study with the LU-01-0030 model, approximately nine week old female BALB/c nude (Shanghai Sino-British SIPPR/BK Laboratory Animal Co., LTD.) mice were implanted subcutaneously with approximate 30 mm^3 LU-01-0030 tumor slices in the right flank. When the mean tumor volume reached approximately 159 mm^3, the animals were randomized into 10 treatment groups (n=8/group).
Compound 1 [((1R,2R,3S,4R)-2,3-dihydroxy-4-(2-(3-(trifluoromethylthio) ? phenyl)pyrazolo[1,5-a]pyrimidin-7-ylamino)cyclopentyl)methyl sulfamate] is formulated in 10% HPbCD in sterile water and administered intravenously on a BIW (twice/week schedule; Monday and Thursday, i.e. days 0, 3, 7, 10, 14, 17) for 3 weeks in the HN-13-0014 and LU-01-0030 (first study) models. Compound 1 formulation was prepared weekly and stored at room temperature in the dark.
Beam-focused radiation was delivered using a either 1 or 2 Gray dosed on days 0, 1, 7, and 8 or on days 0, 3, 7, and 10 in the HN-13-0014 and LU-01-0030 (first study) models. A Rad Source RS-2000 X-ray irradiator was used for therapy (Rad Source). Before radiation, animals were anesthetized by i.p. injection using 1.0% sodium pentobarbital at 80 mg/kg (Vendor: Sigma). Focused radiation was applied to each mouse at 1 Gy/min.
(§1) Tumors were measured twice weekly using vernier calipers. Tumor volumes were calculated using the following formula: (0.5×[length×width^2]). Treatment groups and dosing/treatment schedules are indicated in Tables 1a, 2a, 3a, 4a, and 5a below. Tumor size and body weight are measured approximately twice a week for the duration of the study. Mice are euthanized when their tumor volume reached approximately 1000 mm^3. Tumor growth continued to be monitored after the dosing period in some studies. In Tables 1a, 2a, 3a, 4a, and 5a tumor volumes are shown for HN-13-0014 (day 21), LU-01-0030 (day 21), the second LU-01-0030 study (day 20), LU-01-0266 (day 20), ST-02-0004 (day 21) and FIN-13-0007 (day 24), respectively. Average tumor volume is reported as a function of time for selected groups of selected studies.
(§2) Measurements from day 0 to day 20, day 21 or day 24 are analyzed as specified in Tables below. All tumor volumes have a value of 1 added to them before log10 transformation. For each animal, the log tumor volume at day 0 is subtracted from the log tumor volume on the subsequent days. This difference vs. time is used to calculate an area under the curve (AUC) for each animal using the trapezoid rule. In instances when an animal in a treatment group is removed early from the study, the last observed tumor value is carried forward through all subsequent time points. The synergy score for the combination of agents A and B is defined as 100*(mean(AUCAB)−mean(AUCA)−mean(AUCB)+mean(AUCctl))/mean(AUCctl): where AUCAB, AUCA, AUCB, and AUCctl are the AUC values for animals in the combination group, the A group, the B group, and the control group, respectively. The standard error of the synergy score is computed based on the variation in the AUC values among the animals. […] If the P-value is above 0.05, then the combination is considered to be additive. If the P-value is below 0.05, and the synergy score is less than zero, then the combination is considered to be synergistic. If the P-value is below 0.05 and the synergy score was greater than zero, but the mean AUC for the combination was lower than the lowest mean AUC among the two single agent treatments, then the combination was sub-additive. If the P-value is below 0.05 and if the synergy score was greater than zero, and the mean AUC for the combination was greater than the mean AUC for at least one of the single agent treatments, then the combination was antagonistic.

[2] = tested on: LU-01-0266 xenograft; assay: LU-01-0266 xenograft model, Compound 1 and radiation; format: in vivo, mice; settings: for Classification / Synergy score: through Day 20
Description: The LU-01-0266 xenograft model is a human primary non-small cell lung tumor model. Approximately nine week old female BALB/c nude (Shanghai Sino-British SIPPR/BK Laboratory Animal Co., LTD.) mice were implanted subcutaneously with approximate 30 mm^3 LU-01-0266 tumor slices in the right flank. When the mean tumor volume reached approximately 173 mm^3, the animals were randomized into 10 treatment groups (n=8/group).
Compound 1 [((1R,2R,3S,4R)-2,3-dihydroxy-4-(2-(3-(trifluoromethylthio) ? phenyl)pyrazolo[1,5-a]pyrimidin-7-ylamino)cyclopentyl)methyl sulfamate] is formulated in 10% HPbCD in sterile water and administered intravenously on days 0, 3, 7, 10, 14, 17 in the LU-01-0266 and HN-13-0007 models and on days 0, 3, 8, 11, 15, 18 in the ST-02-0004 model and in the second study with the LU-01-0030 model. Compound 1 formulation was prepared weekly and stored at room temperature in the dark.
Beam-focused radiation was delivered using 2 Gray dosed on days 0, 1, 7, and 8 or on days 0, 3, 7, and 10 in the LU-01-0266 and HN-13-0007 models. In the ST-02-0004 model 2 Gray of radiation was delivered on days 0, 1, 3, and 8. A Rad Source RS-2000 X-ray irradiator was used for therapy (Rad Source). Before radiation, animals were anesthetized by i.p. injection using 1.0% sodium pentobarbital at 80 mg/kg (Vendor: Sigma). Focused radiation was applied to each mouse at 1 Gy/min.
as §1, §2

[3] = 6.25 mg/kg Compound 1 + 2 Gy Radiation D0, 1, 7, 8
[4] = 6.25 mg/kg Compound 1 + 2 Gy Radiation D0, 3, 7, 10
[5] = 6.25 mg/kg Compound 1 IV BIWx3 + 2 Gy Radiation Beam D 0, 1, 7, 8
[6] = 6.25 mg/kg Compound 1 IV BIWx3 + 2 Gy Radiation Beam D 0, 3, 7, 10
[7] = 15 mg/kg Compound 1 + 2 Gy Radiation D0, 1, 7, 8
[8] = 15 mg/kg Compound 1 + 2 Gy Radiation D0, 3, 7, 10
[9] = 15 mg/kg Compound 1 IV BIWx3 + 2 Gy Radiation Beam D 0, 1, 7, 8
[10] = 15 mg/kg Compound 1 IV BIWx3 + 2 Gy Radiation Beam D 0, 3, 7, 10

NS(=O)(=O)OC[C@H]1C[C@@H](Nc2ccnc3cc(-c4cccc(SC(F)(F)F)c4)nn23)[C@H](O)[C@@H]1O [Compound 1, ((1R,2R,3S,4R)-2,3-dihydroxy-4-(2-(3-(trifluoromethylthio)phenyl)pyrazolo[1,5-a]pyrimidin-7-ylamino)cyclopentyl)methyl sulfamate]
Classification [1, 3]: Additive (If the P-value is above 0.05, then the combination is considered to be additive)
Synergy score [1, 3]: 5.4
Classification [1, 4]: Additive (If the P-value is above 0.05, then the combination is considered to be additive)
Synergy score [1, 4]: −22.2
Tumor Volume Day 21 [1, 5]: 101.9 mm^3
Tumor Volume Day 21 [1, 6]: 106.3 mm^3
Tumor Volume Day 21 ([1]; 6.25 mg/kg Compound 1 IV BIWx3, single agent): 555.7 mm^3
anti-tumor activity compared to the vehicle control ([1]; 6.25 mg/kg Compound 1 as a single agent): no anti-tumor activity
Classification [1, 7]: Synergy (If the P-value is below 0.05, and the synergy score is less than zero, then the combination is considered to be synergistic)
Synergy score [1, 7]: −139.6
Classification [1, 8]: Synergy (If the P-value is below 0.05, and the synergy score is less than zero, then the combination is considered to be synergistic)
Synergy score [1, 8]: −165.9
Tumor Volume Day 21 [1, 9]: 2.3 mm^3
Tumor Volume Day 21 [1, 10]: 2.8 mm^3
Tumor Volume Day 21 ([1]; 15 mg/kg Compound 1 IV BIWx3, single agent): 151.3 mm^3
anti-tumor activity, single agent ([1]; Compound 1 at 15 mg/kg as single agent): tumor stasis
combination effect ([1]; Compound 1 with 2 Gy radiation): additive-to-synergistic combination effect
Tumor Volume Day 20 [2, 5]: 181.6 mm^3
Tumor Volume Day 20 [2, 6]: 213.4 mm^3
Tumor Volume Day 20 ([2]; 6.25 mg/kg Compound 1 IV BIWx3 = D 0, 3, 7, 10, 14, 17, single agent): 1004.5 mm^3
Tumor Volume Day 20 [2, 9]: 77.4 mm^3
Tumor Volume Day 20 [2, 10]: 174.9 mm^3
Tumor Volume Day 20 ([2]; 15 mg/kg Compound 1 IV BIWx3 = D 0, 3, 7, 10, 14, 17, single agent): 779 mm^3
combination effect ([2]; Compound 1 with 2 Gy radiation): additive combination effect
anti-tumor activity compared to the vehicle control ([2]; single agent, IV at 6.25 and 15 mg/kg BIW for 3 weeks on Days 0, 3, 7, 10, 14, 17): weak anti-tumor activity
Classification [2, 3]: Additive (If the P-value is above 0.05, then the combination is considered to be additive)
Synergy score [2, 3]: 14
Classification [2, 4]: Additive (If the P-value is above 0.05, then the combination is considered to be additive)
Synergy score [2, 4]: 15
Classification [2, 7]: Additive (If the P-value is above 0.05, then the combination is considered to be additive)
Synergy score [2, 7]: −25
Classification [2, 8]: Additive (If the P-value is above 0.05, then the combination is considered to be additive)
Synergy score [2, 8]: 12
